Test results from patent publication US20260217701A1, “SELECTIVE BET INHIBITORS AND USES THEREOF” (Tay Therapeutics Limited, priority 2022, published 2026).
“And” between values parts separate entries of the source, which are not always exact repeats. Identical values can stand only once.

Test system: collagen-induced arthritis
Assay: Collagen-induced arthritis (CIA) model: clinical scores and paw volume; as to Average animal paw volume percent change (%): reference of the scale not given here; as to animal paw volume percent change (%): reference of the scale not given here
Format: in vivo, Lewis rats
Details: for Average animal paw volume / Average animal paw volume percent change (%) / Animal paw volume percent change (%): group 3 CIA + Dexamethasone; for Animal paw volume percent change (%) / clinical score left forelimb / clinical score left hind limb / clinical score right forelimb / clinical score right hind limb / clinical score, score (all limbs) / Animal paw volume: individual animals; for Overall Clinical Score: individual animals 1-8; for Animal paw volume: Group 3 (CIA + Dexamethasone)
[1] = group 3 CIA+ Dexamethasone, Day 18
[2] = group 3 CIA+ Dexamethasone, Day 19
[3] = group 3 CIA+ Dexamethasone, Day 20

C[C@@H]1C[C@H]2[C@@H]3CCC4=CC(=O)C=C[C@]4(C)[C@@]3(F)[C@@H](O)C[C@]2(C)[C@@]1(O)C(=O)CO [Dexamethasone, dexamethasone]
Average animal paw volume (Day 0, L paw): 1.33 mL | Average animal paw volume percent change (%) (Day 0, L paw): 0.00% | Animal paw volume percent change (%) (Day 0, L paw): 0.00% | Average animal paw volume (Day 0, R paw): 1.33 mL | Average animal paw volume percent change (%) (Day 0, R paw): 0.00% | Animal paw volume percent change (%) (Day 0, R paw): 0.00% | Average detailed clinical score, left forelimb (Day 0, CIA): 0.00 | Average detailed clinical score, left hind limb (Day 0, CIA): 0.00 | Average detailed clinical score, right forelimb (Day 0, CIA): 0.00 | Average detailed clinical score, right hind limb (Day 0, CIA): 0.00 | Average detailed clinical score, score (Day 0, CIA): 0.00 | Average overall clinical score (Day 0, CIA): 0 | clinical score left forelimb (Day 0, CIA): 0 | clinical score left hind limb (Day 0, CIA): 0 | clinical score right forelimb (Day 0, CIA): 0 | clinical score right hind limb (Day 0, CIA): 0 | clinical score, score (all limbs) (Day 0, CIA): 0 | Overall Clinical Score (Day 0, CIA): 0 | Animal paw volume (Day 0, L paw): 1.35 mL and 1.31 mL and 1.39 mL and 1.33 mL and 1.30 mL (2×) and 1.34 mL and 1.36 mL | Animal paw volume (Day 0, R paw): 1.34 mL and 1.30 mL (2×) and 1.38 mL and 1.35 mL and 1.29 mL and 1.36 mL and 1.37 mL | Average animal paw volume (Day 6, L paw): 1.29 mL | Average animal paw volume percent change (%) (Day 6, L paw): -3.37% | Animal paw volume percent change (%) (Day 6, L paw): −2.97% and −1.53% and −3.61% and −3.02% and −3.09% and −3.08% and −4.12% and 5.51% | Average animal paw volume (Day 6, R paw): 1.29 mL | Average animal paw volume percent change (%) (Day 6, R paw): -3.26% | Animal paw volume percent change (%) (Day 6, R paw): −3.00% and 1.16% and −2.91% and −3.72% and −1.56% and −2.70% and −5.90% and −5.13% | Average detailed clinical score, left forelimb (Day 6, CIA): 0.00 | Average detailed clinical score, left hind limb (Day 6, CIA): 0.00 | Average detailed clinical score, right forelimb (Day 6, CIA): 0.00 | Average detailed clinical score, right hind limb (Day 6, CIA): 0.00 | Average detailed clinical score, score (Day 6, CIA): 0.00 | Average overall clinical score (Day 6, CIA): 0 | clinical score left forelimb (Day 6, CIA): 0 | clinical score left hind limb (Day 6, CIA): 0 | clinical score right forelimb (Day 6, CIA): 0 | clinical score right hind limb (Day 6, CIA): 0 | clinical score, score (all limbs) (Day 6, CIA): 0 | Overall Clinical Score (Day 6, CIA): 0 | Animal paw volume (Day 6, L paw): 1.31 mL and 1.29 mL (3×) and 1.34 mL and 1.28 mL | Animal paw volume (Day 6, R paw): 1.30 mL (3×) and 1.28 mL (2×) and 1.34 mL and 1.27 mL | Average animal paw volume (Day 12, L paw): 1.27 mL | Average animal paw volume percent change (%) (Day 12, L paw): -4.94% | Animal paw volume percent change (%) (Day 12, L paw): −10.41% and −7.66% and −1.44% and −3.40% and −1.54% and −6.54% and −3.00% and −5.51% | Average animal paw volume percent change (%) (Day 12, R paw): -5.21% | Animal paw volume percent change (%) (Day 12, R paw): −6.74% and −3.09% and 0.73% and −7.43% and −1.56% and −9.27% and −7.01% and −5.86% | Average detailed clinical score, left forelimb (Day 12, CIA): 0.00 | Average detailed clinical score, left hind limb (Day 12, CIA): 0.00 | Average detailed clinical score, right forelimb (Day 12, CIA): 0.00 | Average detailed clinical score, right hind limb (Day 12, CIA): 0.00 | Average detailed clinical score, score (Day 12, CIA): 0.00 | Average overall clinical score (Day 12, CIA): 0 | clinical score left forelimb (Day 12, CIA): 0 | clinical score left hind limb (Day 12, CIA): 0 | clinical score right forelimb (Day 12, CIA): 0 | clinical score right hind limb (Day 12, CIA): 0 | clinical score, score (all limbs) (Day 12, CIA): 0 | Overall Clinical Score (Day 12, CIA): 0 | Animal paw volume (Day 12, L paw): 1.37 mL and 1.28 mL (2×) and 1.30 mL and 1.29 mL | Animal paw volume (Day 12, R paw): 1.37 mL and 1.27 mL and 1.29 mL | Average animal paw volume (Day 13, L paw): 1.28 mL | Average animal paw volume percent change (%) (Day 13, L paw): -3.57% | Animal paw volume percent change (%) (Day 13, L paw): −8.92% and −5.36% and 0.72% and −3.02% and 0.00% and 4.23% and −2.25% and −5.51% | Average animal paw volume (Day 13, R paw): 1.28 mL | Average animal paw volume percent change (%) (Day 13, R paw): -4.08% | Animal paw volume percent change (%) (Day 13, R paw): −5.99% and −2.32% and 0.36% and −7.43% and −0.78% and −6.95% and −3.69% and 5.86% | Average detailed clinical score, left forelimb (Day 13, CIA): 0 | Average detailed clinical score, left hind limb (Day 13, CIA): 0 | Average detailed clinical score, right forelimb (Day 13, CIA): 0 | Average detailed clinical score, right hind limb (Day 13, CIA): 0 | Average detailed clinical score, score (Day 13, CIA): 0 | Average overall clinical score (Day 13, CIA): 0 | clinical score left forelimb (Day 13, CIA): 0 | clinical score left hind limb (Day 13, CIA): 0 | clinical score right forelimb (Day 13, CIA): 0 | clinical score right hind limb (Day 13, CIA): 0 | clinical score, score (all limbs) (Day 13, CIA): 0 | Overall Clinical Score (Day 13, CIA): 0 | Animal paw volume (Day 13, L paw): 1.40 mL and 1.29 mL (2×) and 1.30 mL and 1.31 mL | Animal paw volume (Day 13, R paw): 1.27 mL and 1.38 mL and 1.28 mL and 1.31 mL and 1.29 mL | Average animal paw volume (Day 14, L paw): 1.27 mL | Average animal paw volume percent change (%) (Day 14, L paw): -4.60% | Animal paw volume percent change (%) (Day 14, L paw): −8.18% and −5.36% and 0.00% and −4.53% and −1.54% and −5.00% and −3.75% and −8.46% | Average animal paw volume percent change (%) (Day 14, R paw): -5.07% | Animal paw volume percent change (%) (Day 14, R paw): −5.62% and −2.70% and 0.00% and −8.92% and −2.33% and −7.72% and −5.17% and −8.06% | Average detailed clinical score, left forelimb (Day 14, CIA): 0 | Average detailed clinical score, left hind limb (Day 14, CIA): 0 | Average detailed clinical score, right forelimb (Day 14, CIA): 0 | Average detailed clinical score, right hind limb (Day 14, CIA): 0 | Average detailed clinical score, score (Day 14, CIA): 0 | Average overall clinical score (Day 14, CIA): 0 | clinical score left forelimb (Day 14, CIA): 0 | clinical score left hind limb (Day 14, CIA): 0 | clinical score right forelimb (Day 14, CIA): 0 | clinical score right hind limb (Day 14, CIA): 0 | clinical score, score (all limbs) (Day 14, CIA): 0 | Overall Clinical Score (Day 14, CIA): 0 | Animal paw volume (Day 14, L paw): 1.39 mL and 1.27 mL and 1.28 mL and 1.29 mL | Animal paw volume (Day 14, R paw): 1.38 mL and 1.29 mL | Average animal paw volume percent change (%) (Day 15, L paw): −5.47% | Animal paw volume percent change (%) (Day 15, L paw): −8.92% and −7.28% and −2.17% | Average animal paw volume percent change (%) (Day 15, R paw): −5.41% | Animal paw volume percent change (%) (Day 15, R paw): −6.74% and −4.25% and 1.45% | Average detailed clinical score, left forelimb (Day 15, CIA): 0 | Average detailed clinical score, left hind limb (Day 15, CIA): 0 | Average detailed clinical score, right forelimb (Day 15, CIA): 0 | Average detailed clinical score, right hind limb (Day 15, CIA): 0 | Average detailed clinical score, score (Day 15, CIA): 0 | Average overall clinical score (Day 15, CIA): 0 | clinical score left forelimb (Day 15, CIA): 0 | clinical score left hind limb (Day 15, CIA): 0 | clinical score right forelimb (Day 15, CIA): 0 | clinical score right hind limb (Day 15, CIA): 0 | clinical score, score (all limbs) (Day 15, CIA): 0 | Overall Clinical Score (Day 15, CIA): 0 | Animal paw volume (Day 15, L paw): 1.36 mL and 1.28 mL and 1.33 mL and 1.27 mL | Animal paw volume (Day 15, R paw): 1.36 mL and 1.27 mL (2×) and 1.32 mL | Average animal paw volume (Day 18, L paw): 1.29 mL | Average animal paw volume percent change (%) (Day 18, L paw): −3.01% | Animal paw volume percent change (%) (Day 18, L paw): −5.20% and −6.51% and 4.33% | Average animal paw volume (Day 18, R paw): 1.29 mL | Average animal paw volume percent change (%) (Day 18, R paw): −3.14% | Animal paw volume percent change (%) (Day 18, R paw): 4.49% and −4.63% and 4.36% | Average detailed clinical score, left forelimb (Day 18, CIA): 0.00 | Average detailed clinical score, left hind limb (Day 18, CIA): 0.00 | Average detailed clinical score, right forelimb (Day 18, CIA): 0.00 | Average detailed clinical score, right hind limb (Day 18, CIA): 0.00 | Average detailed clinical score, score (Day 18, CIA): 0.00 | Average overall clinical score (Day 18, CIA): 0 | Overall Clinical Score (Day 18, CIA): 0 | Animal paw volume (Day 18, L paw): 1.28 mL and 1.45 mL and 1.31 mL and 1.29 mL and 1.34 mL and 1.30 mL | Animal paw volume (Day 18, R paw): 1.28 mL and 1.44 mL and 1.31 mL and 1.29 mL (2×) and 1.34 mL | Average animal paw volume (Day 19, L paw): 1.29 mL | Average animal paw volume percent change (%) (Day 19, L paw): −3.33% | Animal paw volume percent change (%) (Day 19, L paw): 5.20% and −6.90% | Average animal paw volume (Day 19, R paw): 1.28 mL | Average animal paw volume percent change (%) (Day 19, R paw): −3.57% | Animal paw volume percent change (%) (Day 19, R paw): −5.24% and −6.18% | Average detailed clinical score, left forelimb (Day 19, CIA): 0.00 | Average detailed clinical score, left hind limb (Day 19, CIA): 0.00 | Average detailed clinical score, right forelimb (Day 19, CIA): 0.00 | Average detailed clinical score, right hind limb (Day 19, CIA): 0.00 | Average detailed clinical score, score (Day 19, CIA): 0.00 | Average overall clinical score (Day 19, CIA): 0 | Overall Clinical Score (Day 19, CIA): 0 | Animal paw volume (Day 19, L paw): 1.28 mL (2×) and 1.44 mL and 1.30 mL (2×) and 1.33 mL | Animal paw volume (Day 19, R paw): 1.27 mL (2×) and 1.44 mL and 1.31 mL and 1.32 mL and 1.30 mL | Average animal paw volume (Day 21, L paw): 1.28 mL | Average animal paw volume percent change (%) (Day 21, L paw): −3.56% | Animal paw volume percent change (%) (Day 21, L paw): −6.32% and −6.90% | Average animal paw volume (Day 21, R paw): 1.29 mL | Average animal paw volume percent change (%) (Day 21, R paw): −3.51% | Animal paw volume percent change (%) (Day 21, R paw): −5.99% and −6.18% | Average detailed clinical score, left forelimb (Day 21, CIA): 0.00 | Average detailed clinical score, left hind limb (Day 21, CIA): 0.00 | Average detailed clinical score, right forelimb (Day 21, CIA): 0.00 | Average detailed clinical score, right hind limb (Day 21, CIA): 0.00 | Average detailed clinical score, score (Day 21, CIA): 0.00 | Average overall clinical score (Day 21, CIA): 0 | Overall Clinical Score (Day 21, CIA): 0 | Animal paw volume (Day 21, L paw): 1.43 mL and 1.31 mL (2×) and 1.30 mL (2×) | Animal paw volume (Day 21, R paw): 1.43 mL and 1.31 mL and 1.30 mL (2×) and 1.32 mL | clinical score left forelimb [1]: 0 | clinical score left hind limb [1]: 0 | clinical score right forelimb [1]: 0 | clinical score right hind limb [1]: 0 | clinical score, score (all limbs) [1]: 0 | clinical score left forelimb [2]: 0 | clinical score left hind limb [2]: 0 | clinical score right forelimb [2]: 0 | clinical score right hind limb [2]: 0 | clinical score, score (all limbs) [2]: 0 | clinical score left forelimb [3]: 0 | clinical score left hind limb [3]: 0 | clinical score right forelimb [3]: 0 | clinical score right hind limb [3]: 0 | clinical score, score (all limbs) [3]: 0
